Source: ChEMBL document CHEMBL3885881, “DrugMatrix”

Species on record: Rattus norvegicus
Assay: DrugMatrix - Regimen: Daily Repeat
Assay type: toxicity, organism-based, Sprague-Dawley
Set-up: regimen Daily Repeat, gender Male, age 6-8 weeks
Conditions: in vivo, sc, 1.75 mg/kg, route mini-PUMP - SUBCUTANEOUS, dose level High, vehicle 100 % SALINE; for ABSOLUTE BASOPHIL / ABSOLUTE EOSINOPHIL / ABSOLUTE LYMPHOCYTE / ABSOLUTE MONOCYTE / ABSOLUTE SEGMENTED NEUTROPHIL / BASOPHIL / EOSINOPHIL / ERYTHROCYTE COUNT / HEMATOCRIT / HEMOGLOBIN / LEUKOCYTE COUNT / LYMPHOCYTE / MEAN CORPUSCULAR HEMOGLOBIN / MEAN CORPUSCULAR HEMOGLOBIN CONCENTRATION / MEAN CORPUSCULAR VOLUME / MONOCYTE / NEUTROPHIL / NUCLEATED RED BLOOD CELLS / PLATELET COUNT: tissue Blood; for ALANINE AMINOTRANSFERASE / ALBUMIN / ALKALINE PHOSPHATASE / ASPARTATE AMINOTRANSFERASE / BLOOD UREA NITROGEN / CARBON DIOXIDE / CHLORIDE / CHOLESTEROL / CREATININE / GLUCOSE / LACTATE DEHYDROGENASE / LIPASE / PHOSPHORUS / POTASSIUM / SODIUM / TOTAL BILIRUBIN / TOTAL PROTEIN / URIC ACID: tissue Plasma

NC[C@H](O)c1ccc(O)c(O)c1 [NOREPINEPHRINE]
ABSOLUTE BASOPHIL (72 h, time 3 day): 0 CELLS/uL | ABSOLUTE EOSINOPHIL (72 h, time 3 day): 0 CELLS/uL | ABSOLUTE LYMPHOCYTE (72 h, time 3 day): 13450.33 CELLS/uL | ABSOLUTE MONOCYTE (72 h, time 3 day): 275.33 CELLS/uL | ABSOLUTE SEGMENTED NEUTROPHIL (72 h, time 3 day): 1174.33 CELLS/uL | BASOPHIL (72 h, time 3 day): 0% | EOSINOPHIL (72 h, time 3 day): 0% | ERYTHROCYTE COUNT (72 h, time 3 day): 6.14 x10E6/uL | HEMATOCRIT (72 h, time 3 day): 36.87% | HEMOGLOBIN (72 h, time 3 day): 13.53 G/DL | LEUKOCYTE COUNT (72 h, time 3 day): 14.9 x10E3/uL | LYMPHOCYTE (72 h, time 3 day): 90.67% | MEAN CORPUSCULAR HEMOGLOBIN (72 h, time 3 day): 22.03 pg | MEAN CORPUSCULAR HEMOGLOBIN CONCENTRATION (72 h, time 3 day): 36.73 G/DL | MEAN CORPUSCULAR VOLUME (72 h, time 3 day): 60 fL | MONOCYTE (72 h, time 3 day): 2% | NEUTROPHIL (72 h, time 3 day): 7.33% | NUCLEATED RED BLOOD CELLS (72 h, time 3 day): 0.33 /100WBC | PLATELET COUNT (72 h, time 3 day): 1242.33 x10E3/uL | ALANINE AMINOTRANSFERASE (72 h, time 3 day): 42.67 u/L | ALBUMIN (72 h, time 3 day): 4.07 G/DL | ALKALINE PHOSPHATASE (72 h, time 3 day): 322.67 u/L | ASPARTATE AMINOTRANSFERASE (72 h, time 3 day): 89.33 u/L | BLOOD UREA NITROGEN (72 h, time 3 day): 16.67 mg/dL | CARBON DIOXIDE (72 h, time 3 day): 25 mmol/L | CHLORIDE (72 h, time 3 day): 104.33 MEQ/L | CHOLESTEROL (72 h, time 3 day): 72.67 mg/dL | CREATININE (72 h, time 3 day): 0.21 mg/dL | GLUCOSE (72 h, time 3 day): 169 mg/dL | LACTATE DEHYDROGENASE (72 h, time 3 day): 701 u/L | LIPASE (72 h, time 3 day): 9.67 u/L | PHOSPHORUS (72 h, time 3 day): 11.73 mg/dL | POTASSIUM (72 h, time 3 day): 6.75 MEQ/L | SODIUM (72 h, time 3 day): 150.2 MEQ/L | TOTAL BILIRUBIN (72 h, time 3 day): 0.17 mg/dL | TOTAL PROTEIN (72 h, time 3 day): 6.3 G/DL | URIC ACID (72 h, time 3 day): 1.8 mg/dL | ABSOLUTE BASOPHIL (120 h, time 5 day): 0 CELLS/uL | ABSOLUTE EOSINOPHIL (120 h, time 5 day): 0 CELLS/uL | ABSOLUTE LYMPHOCYTE (120 h, time 5 day): 12875 CELLS/uL | ABSOLUTE MONOCYTE (120 h, time 5 day): 478 CELLS/uL | ABSOLUTE SEGMENTED NEUTROPHIL (120 h, time 5 day): 2047 CELLS/uL | BASOPHIL (120 h, time 5 day): 0% | EOSINOPHIL (120 h, time 5 day): 0% | ERYTHROCYTE COUNT (120 h, time 5 day): 6.43 x10E6/uL | HEMATOCRIT (120 h, time 5 day): 38.73% | HEMOGLOBIN (120 h, time 5 day): 14.3 G/DL | LEUKOCYTE COUNT (120 h, time 5 day): 15.4 x10E3/uL | LYMPHOCYTE (120 h, time 5 day): 84.33% | MEAN CORPUSCULAR HEMOGLOBIN (120 h, time 5 day): 22.23 pg | MEAN CORPUSCULAR HEMOGLOBIN CONCENTRATION (120 h, time 5 day): 36.93 G/DL | MEAN CORPUSCULAR VOLUME (120 h, time 5 day): 60.27 fL | MONOCYTE (120 h, time 5 day): 3% | NEUTROPHIL (120 h, time 5 day): 12.67% | NUCLEATED RED BLOOD CELLS (120 h, time 5 day): 0 /100WBC | PLATELET COUNT (120 h, time 5 day): 1321.67 x10E3/uL | ALANINE AMINOTRANSFERASE (120 h, time 5 day): 45 u/L | ALBUMIN (120 h, time 5 day): 4.47 G/DL | ALKALINE PHOSPHATASE (120 h, time 5 day): 289.33 u/L | ASPARTATE AMINOTRANSFERASE (120 h, time 5 day): 74.33 u/L | BLOOD UREA NITROGEN (120 h, time 5 day): 14.67 mg/dL | CARBON DIOXIDE (120 h, time 5 day): 28 mmol/L | CHLORIDE (120 h, time 5 day): 103 MEQ/L | CHOLESTEROL (120 h, time 5 day): 70.67 mg/dL | CREATININE (120 h, time 5 day): 0.13 mg/dL | GLUCOSE (120 h, time 5 day): 203 mg/dL | LACTATE DEHYDROGENASE (120 h, time 5 day): 122 u/L | LIPASE (120 h, time 5 day): 9.33 u/L | PHOSPHORUS (120 h, time 5 day): 12.63 mg/dL | POTASSIUM (120 h, time 5 day): 6.59 MEQ/L | SODIUM (120 h, time 5 day): 150.5 MEQ/L | TOTAL BILIRUBIN (120 h, time 5 day): 0.17 mg/dL | TOTAL PROTEIN (120 h, time 5 day): 6.8 G/DL | URIC ACID (120 h, time 5 day): 2.17 mg/dL | ABSOLUTE BASOPHIL ([…], time 14 day): 0 CELLS/uL | ABSOLUTE EOSINOPHIL ([…], time 14 day): 45.6 CELLS/uL | ABSOLUTE LYMPHOCYTE ([…], time 14 day): 15398.2 CELLS/uL | ABSOLUTE MONOCYTE ([…], time 14 day): 562 CELLS/uL | ABSOLUTE SEGMENTED NEUTROPHIL ([…], time 14 day): 3234.2 CELLS/uL | BASOPHIL ([…], time 14 day): 0% | EOSINOPHIL ([…], time 14 day): 0.2% | ERYTHROCYTE COUNT ([…], time 14 day): 6.59 x10E6/uL | HEMATOCRIT ([…], time 14 day): 38.5% | HEMOGLOBIN ([…], time 14 day): 14.08 G/DL | LEUKOCYTE COUNT ([…], time 14 day): 19.24 x10E3/uL | LYMPHOCYTE ([…], time 14 day): 80.6% | MEAN CORPUSCULAR HEMOGLOBIN ([…], time 14 day): 21.36 pg | MEAN CORPUSCULAR HEMOGLOBIN CONCENTRATION ([…], time 14 day): 36.56 G/DL | MEAN CORPUSCULAR VOLUME ([…], time 14 day): 58.42 fL | MONOCYTE ([…], time 14 day): 3% | NEUTROPHIL ([…], time 14 day): 16.2% | NUCLEATED RED BLOOD CELLS ([…], time 14 day): 0 /100WBC | PLATELET COUNT ([…], time 14 day): 980.2 x10E3/uL | ALANINE AMINOTRANSFERASE ([…], time 14 day): 57.6 u/L | ALBUMIN ([…], time 14 day): 4.18 G/DL | ALKALINE PHOSPHATASE ([…], time 14 day): 349 u/L | ASPARTATE AMINOTRANSFERASE ([…], time 14 day): 86 u/L | BLOOD UREA NITROGEN ([…], time 14 day): 15.8 mg/dL | CARBON DIOXIDE ([…], time 14 day): 30 mmol/L | CHLORIDE ([…], time 14 day): 102.6 MEQ/L | CHOLESTEROL ([…], time 14 day): 72.4 mg/dL | CREATININE ([…], time 14 day): 0.22 mg/dL | GLUCOSE ([…], time 14 day): 187.4 mg/dL | LACTATE DEHYDROGENASE ([…], time 14 day): 105.4 u/L | LIPASE ([…], time 14 day): 8.8 u/L | PHOSPHORUS ([…], time 14 day): 13.42 mg/dL | POTASSIUM ([…], time 14 day): 7.42 MEQ/L | SODIUM ([…], time 14 day): 147.96 MEQ/L | TOTAL BILIRUBIN ([…], time 14 day): 0.16 mg/dL | TOTAL PROTEIN ([…], time 14 day): 6.34 G/DL | URIC ACID ([…], time 14 day): 2.42 mg/dL
